These results are taken from patent US20260306476A1, “ANTIBACTERIAL COMPOUND PBT2” (priority 2022, published 2026).

The test system of test [1] is Neisseria gonorrhoeae strain WHO Z. The settings on record: strain phenotype; cited from earlier work.
The test system of another test is Neisseria gonorrhoeae. Nature of the test: Antibiotic resistance development test over 30 days. The conditions noted are these: control; 30 days of treatment. The class given is cell-based. The method, then: FIG. 2: Antibiotic resistance development assay of PBT2.
Resistance development was tested over a 30 day period with PBT2 and using Kanamycin as a control.

The test system of test [2] is Neisseria gonorrhoeae ATCC49226. The conditions noted are these: cited from earlier work.
Test [3] has the same test system. The experiment in a line: MIC of PBT2 and comparators against CLSI reference strain. The class given is cell-based. The conditions noted are these: ATCC49226, comparator antimicrobials. From the text: 13 multidrug resistant WHO strains of Neisseria gonorrhoeae were selected to cover antimicrobial resistance phenotypes to all the antibiotics currently used.
Test [4] has as its system Neisseria gonorrhoeae strain WHO Z. Nature of the test: Ex vivo Neisseria gonorrhoeae infection of human cervical (Pex) cells. The class given is cell-based. From the text: FIG. 4: Chart indicating PBT2 can cure Neisseria gonorrhoeae infection of human cervical (Pex) cells. […] Ceftriaxone (CRO, positive control) is currently recommended for gonorrhoea treatment. Veh—0.1% DMSO vehicle control; UT—untreated; * p<0.0001 versus vehicle for CRO or PBT2 treatment.
To assess the ability of PBT2 to cure an established gonococcal infection in a human ex vivo system, primary human cervical epithelial (Pex) cells were challenged with Neisseria gonorrhoeae strain WHO Z for 90 min and then treated with 0.1% DMSO (vehicle control), PBT2 (0.016 mg/L to 4.695 mg/L), or ceftriaxone (0.5 mg/L, positive control) for 24 h. Viable gonococci were then enumerated. […] PBT2-induced Pex cell cytotoxicity was not observed during the assay.

For test [5] the test system is unchanged. The experiment in a line: MIC of Triton X-100 with/without PBT2. It counts as cell-based. The source says:
Without wishing to be bound by theory, the inventors hypothesise that this may due to the fact PBT2 is a derivative of the iron chelator clioquinol and PBT2 has the capacity to chelate a range of heavy metals including iron. Genes encoding metal homeostasis proteins (blue dots) are presented in the volcano plot (FIG. 3). Metal homeostasis was previously identified as a crucial feature of gonococcal biology, and therefore it is postulated this may be an “Achilles' heel” with respect to Neisseria gonorrhoeae ionophore sensitivity. […] MpeR is an iron-repressed, AraC-like protein that regulates the mtr efflux locus (involved in antimicrobial susceptibility) in Neisseria gonorrhoeae. Up-regulation of mpeR (e. g. by PBT2) down-regulates MtrF and, in turn, would increase Neisseria gonorrhoeae sensitivity to the antimicrobial detergent, Triton X-100 (22). […] Thus, without wishing to be bound to theory, the inventors hypothesise that PBT2 may influence bacterial iron homeostasis and trigger general defence mechanisms, such as Mtr-mediated antimicrobial efflux, but the Mtr-system may be unable to protect against PBT2.

Test [6] deals with erythromycin-resistant group A Streptococcus (GAS). The settings on record: in the absence of an antibiotic; cited from earlier work.
Test [7] relates to methicillin-resistant Staphylococcus aureus (MRSA). The settings on record: in the absence of an antibiotic; cited from earlier work.
The test system of test [8] is Streptococcus uberis (S. uberis). The conditions noted are these: in the absence of an antibiotic; cited from earlier work.
For test [9], the system named is vancomycin-resistant Enterococcus (VRE). The conditions noted are these: in the absence of an antibiotic; cited from earlier work.

A value given as a limit tells only on which side of the number the result lay.

Consider `O=C(O)c1cn(C2CC2)c2cc(N3CCNCC3)c(F)cc2c1=O` [Ciprofloxacin], for which the “resistance of WHO Z” value in [1] is given as “resistant”.
As to `NC[C@H]1O[C@H](O[C@H]2[C@H](O)[C@@H](O[C@H]3O[C@H](CO)[C@@H](O)[C@H](N)[C@H]3O)[C@H](N)C[C@@H]2N)[C@H](O)[C@@H](O)[C@@H]1O` [Kanamycin, reference compound], in the test with Neisseria gonorrhoeae, the “development of resistance to kanamycin” value was “development of resistance”.
For `CN(C)[C@@H]1C(O)=C(C(N)=O)C(=O)[C@@]2(O)C(O)=C3C(=O)c4c(O)cccc4[C@@](C)(O)[C@H]3C[C@@H]12` [Tetracycline, reference compound], in test [1], the “resistance of WHO Z” value is given as “resistant”. The “CLSI agar dilution MIC QC range” value in test [2] was 0.25 to 1 µg/mL. Also, the MIC in [3] (agar dilution) and in [3] (broth dilution) was 0.25 µg/mL each time.
For the compound `CC[C@H]1OC(=O)[C@H](C)[C@@H](O[C@H]2C[C@@](C)(OC)[C@@H](O)[C@H](C)O2)[C@H](C)[C@@H](O[C@@H]2O[C@H](C)C[C@H](N(C)C)[C@H]2O)[C@](C)(O)C[C@@H](C)CN(C)[C@H](C)[C@@H](O)[C@]1(C)O` [azithromycin], the “resistance of WHO Z” value in [1] is given as “resistant”.
For the compound `C=CC1=C(C(=O)O)N2C(=O)[C@@H](NC(=O)/C(=N\OCC(=O)O)c3csc(N)n3)[C@H]2SC1` [cefixime], the “resistance of WHO Z” value in [1] is “resistant”.
With `CO/N=C(\C(=O)N[C@@H]1C(=O)N2C(C(=O)O)=C(CSc3nc(=O)c(=O)[nH]n3C)CS[C@H]12)c1csc(N)n1` [ceftriaxone, reference compound], in test [1], the “resistance of WHO Z” value is reported as “resistant”. Besides, the “susceptibility of WHO Z” value in test [4] (ceftriaxone positive control (0.5 mg/L)) was “susceptible”. Moreover, in [4] (survival at 24 h, FIG. 4, CRO 0.5 mg/L), the p versus vehicle is reported as below 0.0001.
Turning to `CC1(C)S[C@@H]2[C@H](NC(=O)Cc3ccccc3)C(=O)N2[C@H]1C(=O)O` [penicillin G], in [1], the “resistance of WHO Z” value is “resistant”.
Turning to Triton X-100, the figures for the “MIC of Triton X-100” value in [5] (in the presence of 0.156 mg/L (sub-MIC) PBT2) and in test [5] (without PBT2) were 125 µg/mL and above 1000 µg/mL, respectively.
With zinc [reference compound], the antibacterial activity entry in test [6], in [7], in test [8] and in test [9] was “neither PBT2 nor zinc alone displayed antibacterial activity which would be suitable to treat an infection” in each case.

A word on the MIC: it is the lowest concentration found to suppress growth.
